Source: US20250277012A1 (Protagonist Therapeutics, Inc., priority 2021, published 2025)
Starred links: 1 amine or outer side, 2 acyl side, 3 side chain; linkers in the order of their positions; H or OH if unused. Positions of bridges follow the written chain, without caps; N, C: chain ends. Non-standard residues stand in square brackets, D forms with d. Residues, ends and D or L forms follow the SMILES beside them. Groups on a side chain read outwards from the residue. *: point of attachment. X1 = C[N+](C)(CCNC(=O)CCCCCCCCCCCCCCCCC(=O)O)CC(=O)*; X5 = CCCCCCCCCCCCCCCC(=O)NCC[N+](C)(C)CC(=O)*; C18 diacid = O=C(O)CCCCCCCCCCCCCCCCC(=O)*; Dip = N[C@H](C(=O)O)C(c1ccccc1)c1ccccc1; γGlu = O=C(O)[C@H](CCC(=O)[*:2])N[*:1]; Pro(3R-OH) = O=C(O)[C@H]1NCC[C@H]1O; Palmitoyl = CCCCCCCCCCCCCCCC(=O)*; NMeT = CN[C@H](C(=O)O)[C@@H](C)O; β3hF = N[C@H](CC(=O)O)Cc1ccccc1; dPen = CC(C)(S)[C@@H](N)C(=O)O; NMeK = CN[C@@H](CCCCN)C(=O)O; Pen = CC(C)(S)[C@H](N)C(=O)O; αMeP = C[C@@]1(C(=O)O)CCCN1; Isovaleryl = CC(C)CC(=O)*; hCys = N[C@@H](CCS)C(=O)O; Dap = NC[C@H](N)C(=O)O; AEEA = NCCOCCOCC(=O)O; Ahx = NCCCCCC(=O)O

Each compound was assayed against T1, ferroportin (Homo sapiens, UniProt Q9NP59) (assay: T47D cell-based ferroportin internalization assay in presence of mouse serum albumin (MSA)). Settings: Table 6E; T47D internalization assay with MSA.
T1 sequence (Q9NP59 1-571): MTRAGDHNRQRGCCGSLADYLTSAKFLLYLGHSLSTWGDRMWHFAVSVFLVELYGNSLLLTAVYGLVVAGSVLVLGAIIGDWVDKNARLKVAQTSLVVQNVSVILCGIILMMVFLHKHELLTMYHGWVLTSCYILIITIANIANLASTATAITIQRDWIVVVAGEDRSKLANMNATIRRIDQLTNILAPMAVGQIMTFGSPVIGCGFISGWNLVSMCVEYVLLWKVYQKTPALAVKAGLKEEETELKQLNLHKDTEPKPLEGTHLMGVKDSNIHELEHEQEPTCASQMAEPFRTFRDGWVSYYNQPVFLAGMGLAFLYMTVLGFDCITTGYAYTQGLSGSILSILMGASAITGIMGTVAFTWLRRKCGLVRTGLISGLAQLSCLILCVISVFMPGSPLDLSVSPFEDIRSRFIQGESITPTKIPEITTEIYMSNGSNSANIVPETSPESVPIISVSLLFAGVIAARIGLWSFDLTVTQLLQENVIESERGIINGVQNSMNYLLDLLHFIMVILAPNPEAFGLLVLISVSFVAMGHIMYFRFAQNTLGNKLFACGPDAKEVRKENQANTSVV
Parameters: a human breast carcinoma adherent cell line which endogenously expresses ferroportin; host or cells: T47D
Experimental: The potency of the peptides in causing ferroportin internalization was evaluated in a T47D cell-based assay. […] In this internalization assay, the potency of the test peptides was evaluated in presence of serum albumin which is the main protein component in the blood. T47D cells were maintained in RPMI media (containing required amount of fetal bovine serum) and regularly sub-cultured. In preparation for the assay, the cells were seeded in 96-well plates at a density of 80-100 k cells per well in 100 ul volume and allowed to rest overnight. […] Sigma, A3139). The test peptide dilution series were allowed to incubate at room temperature for 30 min. Then the media was aspirated from the 96-well cell plate and test peptide dilution series were added. […] The AF647-conjugated detection peptide was previously verified to bind to ferroportin and cause its internalization. The cells were washed again after a 2 hr incubation in preparation for flow cytometry analysis. The Median Fluorescence Intensity (MFI) of the AF647-positive population was measured (after removing dead cells and non-singlets from the analysis). The MFI values were used to generate a dose-response curve and obtain IC50 potencies for the test peptides.

Row | IC50 [nM] | SMILES
1 | 1 to 10 | CCCCCCCCCCCCCCCC(=O)NCC[N+](C)(C)CC(=O)NCCCC[C@@H](C(=O)N[C@H](C(=O)N[C@H](CCCCN)C(N)=O)C(c1ccccc1)c1ccccc1)N(C)C(=O)[C@@H]1CSSC[C@H](NC(=O)[C@@H]2CCCN2C(=O)[C@@H](NC(=O)[C@H](Cc2cnc[nH]2)NC(=O)[C@@H](NC(=O)[C@H](CCC(=O)OC)NC(=O)CC(C)C)[C@@H](C)O)C(c2ccccc2)c2ccccc2)C(=O)N1 [compound 175] (Isovaleryl-E(OMe)TH[Dip]PCC[NMeK](X5)[Dip][dK]-NH2; disulfide 6-7)
2 | 10 to 100 | COC(=O)CC[C@H](NC(=O)CC(C)C)C(=O)N1CCC[C@@]1(C)C(=O)N[C@@H](Cc1c[nH]cn1)C(=O)N[C@H](C(=O)N1CCC[C@H]1C(=O)N[C@H]1CSSC[C@@H](C(=O)N(C)[C@@H](CCCCNC(=O)CCCCCNC(=O)C[N+](C)(C)CCNC(=O)CCCCCCCCCCCCCCCCC(=O)O)C(=O)N[C@H](C(=O)N[C@H](CCCCN)C(N)=O)C(c2ccccc2)c2ccccc2)NC1=O)C(c1ccccc1)c1ccccc1 [compound 145] (Isovaleryl-E(OMe)[αMeP]H[Dip]PCC[NMeK]([Ahx-X1])[Dip][dK]-NH2; disulfide 6-7)
3 | 1 to 10 | CCCCCCCCCCCCCCCC(=O)NCC[N+](C)(C)CC(=O)NCCCC[C@@H](C(=O)N[C@H](C(=O)N[C@H](CCCCN)C(N)=O)C(c1ccccc1)c1ccccc1)N(C)C(=O)[C@@H]1CSSC[C@H](NC(=O)[C@@H]2CCCN2C(=O)[C@@H](NC(=O)[C@H](Cc2c[nH]cn2)NC(=O)[C@@H]2[C@H](O)CCN2C(=O)[C@H](CCC(=O)OC)NC(=O)CC(C)C)C(c2ccccc2)c2ccccc2)C(=O)N1 [compound 151] (Isovaleryl-E(OMe)[Pro(3R-OH)]H[Dip]PCC[NMeK](X5)[Dip][dK]-NH2; disulfide 6-7)
4 | 1 to 10 | CCCCCCCCCCCCCCCC(=O)NCCCCCC(=O)NCCCC[C@@H](C(=O)N[C@H](C(N)=O)C(c1ccccc1)c1ccccc1)N(C)C(=O)[C@@H]1CSSC[C@H](NC(=O)[C@@H]2CCCN2C(=O)[C@@H](NC(=O)[C@H](Cc2cnc[nH]2)NC(=O)[C@H]([C@@H](C)O)N(C)C(=O)[C@H](CCC(=O)O)NC(=O)CC(C)C)C(c2ccccc2)c2ccccc2)C(=O)N1 [compound 172] (Isovaleryl-E[NMeT]H[Dip]PCC[NMeK]([Ahx-Palmitoyl])[Dip]-NH2; disulfide 6-7)

These compounds were tested against T1, ferroportin (assay: FPN activity assay: ferroportin-GFP internalization/degradation in HEK293 cells). Settings: Table 6D; ferroportin-GFP internalization/degradation, at least 18 hours incubation; read-out: FPN IC50.
Assay type: cell-based
Parameters: expressed in transfected cells
Experimental: Following internalization, the ferroporin protein is degraded.
A retro inverse peptide is a peptide with a reversed sequence in all D amino acids. An example is that Hy-Glu-Thr-His-NH2 becomes Hy-DHis-DThr-DGlu-NH2. The EC50 of these reference compounds for ferroportin internalization/degradation was determined according to the FPN activity assay described above. These peptides served as control standards.

Row | DC50 [nM] | SMILES
5 | > 500 | CCCCCCCCCCCCCCCC(=O)NCC[N+](C)(C)CC(=O)NCCCC[C@H](NC(=O)[C@@H]1CSSC[C@H](NC(=O)[C@H](CCC(=O)OC)NC(=O)CC(C)C)C(=O)N[C@@H](Cc2c[nH]cn2)C(=O)N[C@@H](C(c2ccccc2)c2ccccc2)C(=O)N1)C(=O)NCCCCC [compound 123]

Same assay, conditions: ferroportin-GFP HEK293 cells, at least 18 hours; read-out: FPN IC50

Row | DC50 [nM] | SMILES
6 | 1 to 10 | CCCCCCCCCCCCCCCC(=O)NCCCCCC(=O)NCCCC[C@H](NC(=O)C[C@H](Cc1ccccc1)NC(=O)[C@@H](CCCCN)NC(=O)[C@@H](NC(=O)[C@H](C)NC(=O)[C@H]1CSSC[C@H](NC(=O)[C@H](CCC(=O)O)NC(=O)CC(C)C)C(=O)N[C@@H](Cc2c[nH]cn2)C(=O)N[C@@H](C(c2ccccc2)c2ccccc2)C(=O)N1)[C@@H](C)CC)C(=O)N[C@H](CCCCN)C(=O)N[C@@H](C)C(N)=O [Compd 46] (Isovaleryl-ECH[Dip][dC]AI[dK][β3hF]K([Ahx-Palmitoyl])[dK]A-NH2; disulfide 2-5)
7 | 10 to 100 | CCCCCCCCCCCCCCCC(=O)NCCCCCC(=O)NCCCC[C@H](NC(=O)C[C@H](Cc1ccccc1)NC(=O)[C@@H]1CCSSC[C@H](NC(=O)CC(C)C)C(=O)N[C@@H]([C@@H](C)O)C(=O)N[C@@H](Cc2c[nH]cn2)C(=O)N[C@@H](C(c2ccccc2)c2ccccc2)C(=O)N2CCC[C@H]2C(=O)N[C@@H](C)C(=O)N[C@@H]([C@@H](C)CC)C(=O)N1)C(=O)N[C@H](CCCCN)C(N)=O [compound 108] (Isovaleryl-CTH[Dip]PAI[hCys][β3hF]K([Ahx-Palmitoyl])[dK]-NH2; disulfide 1-8)
8 | 100 to 500 | CC[C@H](C)[C@H](NC(=O)[C@@H]1CSSC[C@H](NC(=O)[C@H](Cc2c[nH]cn2)NC(=O)[C@@H](NC(=O)[C@H](CCC(=O)O)NC(=O)CC(C)C)[C@@H](C)O)C(=O)N2CCC[C@H]2C(=O)N1)C(=O)N[C@@H](CCCCNC(=O)COCCOCCNC(=O)COCCOCCNC(=O)CC[C@H](NC(=O)CCCCCCCCCCCCCCCCC(=O)O)C(=O)O)C(=O)N[C@H](CC(=O)N[C@H](CCCCN)C(N)=O)Cc1ccccc1 [Compd 29] (Isovaleryl-ETHCPCIK([AEEA-AEEA-γGlu-C18 diacid])[β3hF][dK]-NH2; disulfide 4-6)
9 | 100 to 500 | CCCCCCCCCCCCCCCC(=O)NCCCCCC(=O)NCCCC[C@H](NC(=O)C[C@H](Cc1ccccc1)NC(=O)[C@@H](CCCCN)NC(=O)[C@@H](NC(=O)[C@@H]1CSSC[C@H](NC(=O)[C@@H](NC(=O)[C@H](CCC(=O)O)NC(=O)CC(C)C)[C@@H](C)O)C(=O)N[C@@H](C(c2ccccc2)c2ccccc2)C(=O)N2CCC[C@H]2C(=O)N1)[C@@H](C)CC)C(=O)N[C@H](CCCCN)C(N)=O [Compd ID 2, Isovaleric Acid-E-T-[Cys]-[Dpa]-P-[Cys]-I-[(D)Lys]-[bhPhe]-[Lys(Ahx_Palm)]-[(D)Lys]-NH2] (Isovaleryl-ETC[Dip]PCI[dK][β3hF]K([Ahx-Palmitoyl])[dK]-NH2; disulfide 3-6)
10 | 100 to 500 | CCCCCCCCCCCCCCCC(=O)NCCCCCC(=O)NCCCC[C@H](NC(=O)[C@@H](NC(=O)[C@@H]1CSSCC[C@H](NC(C)=O)C(=O)N[C@@H](CCC(=O)O)C(=O)N[C@@H]([C@@H](C)O)C(=O)N[C@@H](Cc2c[nH]cn2)C(=O)N[C@@H](C(c2ccccc2)c2ccccc2)C(=O)N2CCC[C@H]2C(=O)N1)[C@@H](C)CC)C(=O)N[C@H](CC(N)=O)Cc1ccccc1 [Compd 12] (Ac-[hCys]ETH[Dip]PCIK([Ahx-Palmitoyl])[β3hF]-NH2; disulfide 1-7)
11 | 10 to 100 | CCCCCCCCCCCCCCCC(=O)NCCCCCC(=O)NCCCC[C@H](NC(=O)C[C@H](Cc1ccccc1)NC(=O)[C@@H]1NC(=O)[C@H]([C@@H](C)CC)NC(=O)[C@H](C)NC(=O)[C@@H]2CCCN2C(=O)[C@H](C(c2ccccc2)c2ccccc2)NC(=O)[C@H](Cc2c[nH]cn2)NC(=O)[C@H]([C@@H](C)O)NC(=O)[C@@H](NC(=O)CC(C)C)CSSC1(C)C)C(=O)N[C@H](CCCCN)C(N)=O [compound 104] (Isovaleryl-CTH[Dip]PAI[dPen][β3hF]K([Ahx-Palmitoyl])[dK]-NH2; disulfide 1-8)

Same assay, conditions: ferroportin-GFP internalization/degradation, HEK293 cells; Table 6E; read-out: FPN IC50

Row | DC50 [nM] | SMILES
12 | 100 to 500 | CC(C)CC(=O)N[C@@H](CCC(=O)O)C(=O)N[C@H](C(=O)N[C@@H](Cc1c[nH]cn1)C(=O)N[C@H](C(=O)N1CCC[C@H]1C(=O)N[C@@H]1C(=O)N[C@H](C(=O)N(C)[C@@H](CCCCNC(=O)COCCOCCNC(=O)COCCOCCNC(=O)[C@H](CN)NC(=O)CCCCCCCCCCCCCCCCC(=O)O)C(=O)N[C@H](CC(=O)N[C@H](CCCCN)C(N)=O)Cc2ccccc2)C(C)(C)SSC1(C)C)C(c1ccccc1)c1ccccc1)[C@@H](C)O [compound 273] (Isovaleryl-ETH[Dip]P[Pen][Pen][NMeK]([AEEA-AEEA-Dap-C18 diacid])[β3hF][dK]-NH2; disulfide 6-7)
13 | 10 to 100 | CC(C)CC(=O)N[C@@H](CCC(=O)O)C(=O)N[C@H](C(=O)N[C@@H](Cc1c[nH]cn1)C(=O)N[C@H](C(=O)N1CCC[C@H]1C(=O)N[C@@H]1C(=O)N[C@H](C(=O)N(C)[C@@H](CCCCNC(=O)COCCOCCNC(=O)COCCOCCNC(=O)[C@H](CN)NC(=O)CCCCCCCCCCCCCCCCC(=O)O)C(=O)N[C@H](CC(=O)N[C@H](CCCCN)C(N)=O)Cc2ccccc2)CSSC1(C)C)C(c1ccccc1)c1ccccc1)[C@@H](C)O [compound 271] (Isovaleryl-ETH[Dip]P[Pen]C[NMeK]([AEEA-AEEA-Dap-C18 diacid])[β3hF][dK]-NH2; disulfide 6-7)
